The source made the active and inactive calls. The rule behind the calls is not given here.
Experiments:
[1] = test system: Epidermal growth factor receptor (Homo sapiens), P00533 [L858R,T790M]; details: 100 nM
[2] = test system: Epidermal growth factor receptor (Homo sapiens), P00533 [L858R,T790M]; details: 100 nM; remark: listed apart in the source
[3] = test system: Epidermal growth factor receptor (Homo sapiens), P00533 [L858R,T790M]
[4] = test system: Epidermal growth factor receptor (Homo sapiens), P00533 [L858R]
[5] = test system: Epidermal growth factor receptor (Homo sapiens), P00533 [T790M]; details: 1 uM
[6] = target: T1, Epidermal growth factor receptor (Homo sapiens, UniProt P00533); assay type: ADME
Liver = experiment: Stability in human liver microsomes at 3 uM up to 50 mins by LCMS analysis; assay type: ADME, microsome
[7] = target: T1, Epidermal growth factor receptor; experiment: Inhibition of wild-type EGFR in human A431 cells assessed as reduction in cell viability after 96 hrs by CellTiterGlo assay; assay type: ADME, cell-based
[8] = test system: Epidermal growth factor receptor (Homo sapiens), P00533 [L858R]; details: 1 uM
[9] = target: Epidermal growth factor receptor (Homo sapiens, UniProt P00533, L858R); experiment: Reversible inhibition of human N-terminal GST-tagged EGFR L858R mutant cytoplasmic domain (669 to 1210 end amino acid residues) expressed in baculovirus expression system using TK peptide substrate preincubated for 2 to 90 mins followed by 6-fold dilution
[10] = target: T2, Cytoplasmic tyrosine-protein kinase BMX (Homo sapiens) (UniProt P51813); experiment: Inhibition of full-length recombinant human His-tagged cytoplasmic BMX expressed in baculovirus expression system at 1 uM by Z'-LYTE assay
T2 sequence (whole entry): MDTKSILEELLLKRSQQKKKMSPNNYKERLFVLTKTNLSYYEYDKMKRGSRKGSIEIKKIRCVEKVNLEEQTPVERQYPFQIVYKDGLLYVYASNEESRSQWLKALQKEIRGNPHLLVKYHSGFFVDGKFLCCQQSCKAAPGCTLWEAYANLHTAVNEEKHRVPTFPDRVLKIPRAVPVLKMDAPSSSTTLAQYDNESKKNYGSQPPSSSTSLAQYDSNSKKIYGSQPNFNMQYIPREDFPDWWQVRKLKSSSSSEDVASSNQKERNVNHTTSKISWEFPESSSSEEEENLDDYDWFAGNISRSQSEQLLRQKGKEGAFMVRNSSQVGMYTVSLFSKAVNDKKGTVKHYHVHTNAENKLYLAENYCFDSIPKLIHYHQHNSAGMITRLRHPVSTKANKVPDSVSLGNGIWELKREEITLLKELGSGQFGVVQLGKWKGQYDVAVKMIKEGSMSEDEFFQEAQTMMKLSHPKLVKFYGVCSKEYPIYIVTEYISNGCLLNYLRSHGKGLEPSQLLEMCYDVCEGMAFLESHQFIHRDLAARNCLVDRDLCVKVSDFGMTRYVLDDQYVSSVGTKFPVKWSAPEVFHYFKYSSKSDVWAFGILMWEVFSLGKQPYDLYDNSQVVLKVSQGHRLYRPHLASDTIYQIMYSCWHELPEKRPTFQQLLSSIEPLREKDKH

[11] = target: Receptor tyrosine-protein kinase erbB-4 (Homo sapiens) (UniProt Q15303); experiment: Inhibition of recombinant truncated human His/IgG1 Fc-tagged ERBB4 expressed in mammalian expression system at 1 uM by Z'-LYTE assay
[12] = target: T1, Epidermal growth factor receptor; experiment: Reversible inhibition of wild-type human N-terminal GST-tagged EGFR cytoplasmic domain (669 to 1210 end amino acid residues) expressed in baculovirus expression system using TK peptide substrate assessed as inactivation constant preincubated for 2 to 90 mins followed by 6-fold dilution
[13] = test system: Epidermal growth factor receptor (Homo sapiens), P00533 [L858R,T790M,C797S]; experiment: Inhibition of EGFR L858R/T790M/C797S triple mutant (unknown origin) by HTRF assay
[14] = target: Epidermal growth factor receptor (Homo sapiens, UniProt P00533, L858R/T790M); experiment: Reversible inhibition of human N-terminal GST-tagged EGFR L858R/T790M double mutant cytoplasmic domain (669 to 1210 end amino acid residues) expressed in baculovirus expression system using TK peptide substrate preincubated for 2 to 90 mins followed by 6-fold dilution

Sequence of Epidermal growth factor receptor (Homo sapiens), P00533 [L858R,T790M] (P00533 whole entry T790M/L858R, looked up): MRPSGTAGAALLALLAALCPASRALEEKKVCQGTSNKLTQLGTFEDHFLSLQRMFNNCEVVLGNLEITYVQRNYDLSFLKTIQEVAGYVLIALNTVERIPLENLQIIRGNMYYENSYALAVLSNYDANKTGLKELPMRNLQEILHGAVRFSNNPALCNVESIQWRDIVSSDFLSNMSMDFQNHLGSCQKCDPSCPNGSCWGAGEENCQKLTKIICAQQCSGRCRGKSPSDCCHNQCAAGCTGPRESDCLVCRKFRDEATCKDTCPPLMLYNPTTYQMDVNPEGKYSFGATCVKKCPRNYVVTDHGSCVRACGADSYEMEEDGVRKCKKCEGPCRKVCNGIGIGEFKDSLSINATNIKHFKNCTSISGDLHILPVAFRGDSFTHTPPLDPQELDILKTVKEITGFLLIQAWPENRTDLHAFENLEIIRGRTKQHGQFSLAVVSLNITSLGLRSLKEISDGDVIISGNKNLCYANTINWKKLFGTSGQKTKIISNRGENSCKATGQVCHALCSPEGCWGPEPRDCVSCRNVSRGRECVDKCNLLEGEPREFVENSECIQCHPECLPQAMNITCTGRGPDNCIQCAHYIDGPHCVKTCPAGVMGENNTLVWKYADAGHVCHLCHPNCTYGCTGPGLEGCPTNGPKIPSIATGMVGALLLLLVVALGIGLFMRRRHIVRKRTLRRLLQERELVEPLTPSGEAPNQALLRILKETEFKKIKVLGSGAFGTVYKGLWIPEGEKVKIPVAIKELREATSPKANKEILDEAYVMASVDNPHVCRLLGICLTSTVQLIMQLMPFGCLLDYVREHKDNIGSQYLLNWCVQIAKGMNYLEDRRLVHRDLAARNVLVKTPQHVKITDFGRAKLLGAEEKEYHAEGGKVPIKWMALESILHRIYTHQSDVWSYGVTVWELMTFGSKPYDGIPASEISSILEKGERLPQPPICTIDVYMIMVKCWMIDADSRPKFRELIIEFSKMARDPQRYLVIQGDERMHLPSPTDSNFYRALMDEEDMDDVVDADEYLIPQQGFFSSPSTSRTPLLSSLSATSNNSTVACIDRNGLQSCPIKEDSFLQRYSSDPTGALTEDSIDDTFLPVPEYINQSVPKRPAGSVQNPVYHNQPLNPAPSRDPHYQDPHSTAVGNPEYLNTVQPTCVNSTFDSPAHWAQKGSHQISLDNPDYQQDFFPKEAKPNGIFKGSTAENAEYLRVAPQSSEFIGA
T1 sequence (P00533 whole entry): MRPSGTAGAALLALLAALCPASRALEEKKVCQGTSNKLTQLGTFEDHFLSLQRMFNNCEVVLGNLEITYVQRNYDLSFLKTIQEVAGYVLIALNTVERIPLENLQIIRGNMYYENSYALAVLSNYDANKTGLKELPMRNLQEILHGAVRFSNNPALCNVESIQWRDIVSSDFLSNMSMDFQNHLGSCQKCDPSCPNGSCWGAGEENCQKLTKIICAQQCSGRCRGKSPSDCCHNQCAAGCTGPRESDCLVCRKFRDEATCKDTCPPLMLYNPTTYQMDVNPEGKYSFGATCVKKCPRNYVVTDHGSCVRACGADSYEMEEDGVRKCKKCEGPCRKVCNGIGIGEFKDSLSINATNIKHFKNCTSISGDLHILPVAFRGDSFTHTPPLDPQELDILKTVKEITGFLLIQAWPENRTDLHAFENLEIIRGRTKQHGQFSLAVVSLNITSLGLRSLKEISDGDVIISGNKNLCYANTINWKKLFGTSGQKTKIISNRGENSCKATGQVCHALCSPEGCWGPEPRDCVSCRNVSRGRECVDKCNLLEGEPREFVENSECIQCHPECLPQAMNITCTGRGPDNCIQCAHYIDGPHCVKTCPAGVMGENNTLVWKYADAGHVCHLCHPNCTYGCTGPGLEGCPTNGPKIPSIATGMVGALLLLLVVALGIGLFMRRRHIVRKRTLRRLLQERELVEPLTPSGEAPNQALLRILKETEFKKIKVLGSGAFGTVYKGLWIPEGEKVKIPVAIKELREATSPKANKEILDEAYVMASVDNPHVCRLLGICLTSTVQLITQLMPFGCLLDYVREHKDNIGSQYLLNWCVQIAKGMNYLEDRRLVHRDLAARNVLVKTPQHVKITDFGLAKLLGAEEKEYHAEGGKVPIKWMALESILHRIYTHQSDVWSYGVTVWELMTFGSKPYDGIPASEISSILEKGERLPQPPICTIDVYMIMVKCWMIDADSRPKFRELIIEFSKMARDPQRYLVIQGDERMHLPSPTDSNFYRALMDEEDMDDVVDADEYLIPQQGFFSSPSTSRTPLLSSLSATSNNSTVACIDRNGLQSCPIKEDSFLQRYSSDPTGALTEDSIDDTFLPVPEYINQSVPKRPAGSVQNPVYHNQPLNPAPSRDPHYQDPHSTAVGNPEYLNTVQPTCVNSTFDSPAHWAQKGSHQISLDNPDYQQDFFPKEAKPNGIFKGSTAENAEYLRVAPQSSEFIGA
Sequence of Epidermal growth factor receptor (Homo sapiens), P00533 [L858R] (P00533 whole entry L858R, the tested form may be a part): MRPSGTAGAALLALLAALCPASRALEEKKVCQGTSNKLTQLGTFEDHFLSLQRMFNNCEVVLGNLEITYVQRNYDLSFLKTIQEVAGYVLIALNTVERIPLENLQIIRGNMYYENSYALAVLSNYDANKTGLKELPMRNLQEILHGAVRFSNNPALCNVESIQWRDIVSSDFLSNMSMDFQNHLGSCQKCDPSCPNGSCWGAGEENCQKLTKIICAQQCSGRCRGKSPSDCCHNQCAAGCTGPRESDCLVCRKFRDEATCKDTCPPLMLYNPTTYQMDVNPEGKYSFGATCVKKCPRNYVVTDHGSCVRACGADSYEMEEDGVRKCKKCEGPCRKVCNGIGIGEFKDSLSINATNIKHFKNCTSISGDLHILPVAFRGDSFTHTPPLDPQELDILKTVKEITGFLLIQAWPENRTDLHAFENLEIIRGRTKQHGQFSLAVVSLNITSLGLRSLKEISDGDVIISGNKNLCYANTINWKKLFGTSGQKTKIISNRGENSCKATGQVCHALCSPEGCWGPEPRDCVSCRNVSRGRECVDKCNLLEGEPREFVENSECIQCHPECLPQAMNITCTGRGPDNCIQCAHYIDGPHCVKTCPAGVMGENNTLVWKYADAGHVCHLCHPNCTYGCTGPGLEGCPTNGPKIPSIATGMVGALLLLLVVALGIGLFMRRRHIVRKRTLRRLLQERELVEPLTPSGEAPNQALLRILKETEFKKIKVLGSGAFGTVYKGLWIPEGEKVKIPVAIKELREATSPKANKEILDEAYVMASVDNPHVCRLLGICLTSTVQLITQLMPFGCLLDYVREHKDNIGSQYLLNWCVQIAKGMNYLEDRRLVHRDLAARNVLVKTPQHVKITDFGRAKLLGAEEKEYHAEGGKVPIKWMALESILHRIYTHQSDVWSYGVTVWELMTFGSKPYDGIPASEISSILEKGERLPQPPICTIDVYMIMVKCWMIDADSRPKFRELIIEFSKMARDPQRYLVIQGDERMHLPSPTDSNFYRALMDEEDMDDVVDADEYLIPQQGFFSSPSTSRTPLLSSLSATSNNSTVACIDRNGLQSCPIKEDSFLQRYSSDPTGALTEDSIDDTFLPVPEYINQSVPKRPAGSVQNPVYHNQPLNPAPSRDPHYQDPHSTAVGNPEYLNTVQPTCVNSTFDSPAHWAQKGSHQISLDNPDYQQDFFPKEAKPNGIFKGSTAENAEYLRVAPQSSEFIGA
Sequence of Receptor tyrosine-protein kinase erbB-4 (Homo sapiens) (Q15303 whole entry, the tested form may be a part): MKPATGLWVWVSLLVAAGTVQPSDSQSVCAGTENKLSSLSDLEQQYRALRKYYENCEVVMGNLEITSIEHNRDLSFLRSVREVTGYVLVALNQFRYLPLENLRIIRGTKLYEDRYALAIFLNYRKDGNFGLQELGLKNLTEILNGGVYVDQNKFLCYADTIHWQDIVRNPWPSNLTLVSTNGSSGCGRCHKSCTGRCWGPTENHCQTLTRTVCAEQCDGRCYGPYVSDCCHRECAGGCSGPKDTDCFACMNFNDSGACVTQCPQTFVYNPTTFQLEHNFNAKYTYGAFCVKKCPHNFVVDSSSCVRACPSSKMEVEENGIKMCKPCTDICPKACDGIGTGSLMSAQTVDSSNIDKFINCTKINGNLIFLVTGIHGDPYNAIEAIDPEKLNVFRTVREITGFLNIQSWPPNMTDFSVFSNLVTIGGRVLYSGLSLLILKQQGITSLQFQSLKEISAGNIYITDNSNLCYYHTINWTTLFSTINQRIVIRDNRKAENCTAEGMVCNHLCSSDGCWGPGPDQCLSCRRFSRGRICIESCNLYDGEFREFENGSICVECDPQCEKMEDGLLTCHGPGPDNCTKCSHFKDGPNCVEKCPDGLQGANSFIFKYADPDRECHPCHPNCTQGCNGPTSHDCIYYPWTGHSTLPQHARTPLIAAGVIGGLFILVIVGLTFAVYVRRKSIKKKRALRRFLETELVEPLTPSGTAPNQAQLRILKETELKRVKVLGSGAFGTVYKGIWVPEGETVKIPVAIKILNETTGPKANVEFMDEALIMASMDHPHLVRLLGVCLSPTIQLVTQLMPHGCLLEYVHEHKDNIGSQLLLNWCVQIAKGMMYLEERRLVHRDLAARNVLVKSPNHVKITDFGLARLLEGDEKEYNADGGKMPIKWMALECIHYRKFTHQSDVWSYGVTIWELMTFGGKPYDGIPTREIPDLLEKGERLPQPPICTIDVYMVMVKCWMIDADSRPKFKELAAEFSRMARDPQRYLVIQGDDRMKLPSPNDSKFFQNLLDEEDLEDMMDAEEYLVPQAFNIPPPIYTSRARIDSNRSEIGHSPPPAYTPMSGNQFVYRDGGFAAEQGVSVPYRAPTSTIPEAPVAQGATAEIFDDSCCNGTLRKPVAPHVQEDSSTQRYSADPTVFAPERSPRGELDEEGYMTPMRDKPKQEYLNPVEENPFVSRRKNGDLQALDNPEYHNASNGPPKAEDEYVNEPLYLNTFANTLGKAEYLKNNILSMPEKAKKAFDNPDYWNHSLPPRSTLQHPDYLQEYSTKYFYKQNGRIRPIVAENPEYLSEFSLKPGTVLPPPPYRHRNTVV

SMILES: C=CC(=O)Nc1cc(Nc2n[nH]c3cc(Nc4cccc(F)c4)ccc23)c(OC)cc1N(C)CCN(C)C
- inhibition [1]: Active
- inhibition [2]: Active
- Kinact [3]: 0.17 min⁻¹
- Kinact [4]: 0.09 min⁻¹
- inhibition [5]: > 95%
- IC50 [6]: < 1 nM
- Stability (Liver): Stable
- EC50 [7]: 3100 nM
- inhibition [8]: > 95%
- Ki [9]: 3.9 nM
- inhibition [10]: > 85%
- inhibition [11]: Active
- kinact [12]: 0.00233 s⁻¹
- inhibition [13]: inactive
- Ki [14]: 7.4 nM

Reference: ChEMBL document CHEMBL4007434, “Indazole-Based Covalent Inhibitors To Target Drug-Resistant Epidermal Growth Factor Receptor” (J Med Chem, 2017)
